According to patent US10087156B2, “Methods and compositions related to retinoid receptor-selective pathway” (Sanford Burnham Prebys Medical Discovery Institute, priority 2010, dated 2018):
Entries after “also recorded” stand apart in the source; their conditions may differ.

Experiments:
MCF-7 breast tumor = MCF-7 breast tumor growth, oral administration; format: in vivo; details: mice, 15, 30, 60 mg/kg by gavage once daily, 20 days
Protocol: The growth inhibitory effect of oral administration of K-80003 on MCF-7 breast tumor tissue grown in mice was investigated. K-80003 was dissolved in NaHCO3 (pH 8.0). Mice with MCF-7 breast tumor tissue were administered 15 mg/kg K-80003, 30 mg/kg K-80003, 60 mg/kg K-80003, or a control in 100 ul total volume by gavage once daily.

cancer = assay: Preventing cancer in a human patient; format: in vivo; details: 150 mg tablet twice daily
Protocol: A human patient with an elevated risk of developing cancer relative to the general population is identified and instructed to take a 150 mg tablet containing the active ingredient K-80003 twice daily.

[1] = Preclinical toxicity study; format: in vivo
Protocol: Preclinical studies of K-80003 were performed, including the investigation of toxicity, bioavailability, and pharmacokinetics.

[2] = tested on: prostaglandin E2 (PGE2) production; assay: PGE2 production in A549 cells; format: cell-based, human
Protocol: A549 cells were seeded in 24-well plates in DMEM with 10% fetal bovine serum. After overnight culture, cells were stimulated with 10 ng/ml IL-1β in DMEM medium without serum for 24 hr. After 10 min pretreatment with the indicated concentrations of Sulindac or analog, cells were co-treated with 10 μM arachidonic acid and Sulindac or its analog for 30 min at 37° C. Medium was collected and immediately assayed. PGE2 production was measured with Prostaglandin E2 EIA Kit-Monoclonal according to the manufacturer's instructions (Cayman Chemical, Ann Arbor, Mich.). PGE2 production (%) is expressed as the ratio of PGE2 produced in the presence of compound to that with vehicle alone.

[3] = target: T1, RXRα homodimer and heterodimer (Homo sapiens, UniProt P19793); assay: (TREpal)2-tk-CAT and βRARE-tk-CAT reporter assays in CV-1 cells; format: cell-based; details: SR11237 10^−6 M
T1 construct: expressed in transfected cells; host or cells: CV-1 green monkey kidney cells
T1 sequence (P19793 whole entry, one chain of several): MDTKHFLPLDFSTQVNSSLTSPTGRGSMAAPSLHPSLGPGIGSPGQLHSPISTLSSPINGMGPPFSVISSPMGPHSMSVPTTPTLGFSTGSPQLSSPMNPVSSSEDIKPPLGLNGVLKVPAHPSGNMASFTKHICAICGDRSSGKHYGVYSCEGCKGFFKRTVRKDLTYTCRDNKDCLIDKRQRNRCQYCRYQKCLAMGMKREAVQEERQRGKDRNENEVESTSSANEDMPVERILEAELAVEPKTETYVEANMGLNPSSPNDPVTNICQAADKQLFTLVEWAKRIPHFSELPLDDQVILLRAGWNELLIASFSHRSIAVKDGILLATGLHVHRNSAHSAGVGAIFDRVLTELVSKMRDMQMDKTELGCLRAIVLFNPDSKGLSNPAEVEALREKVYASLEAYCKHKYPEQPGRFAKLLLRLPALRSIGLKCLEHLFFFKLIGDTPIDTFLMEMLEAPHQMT
Protocol: Nur77 and/or RXRα were transiently transfected into CV-1 cells. Cells were treated with or without SR11237 (10^−6 M), a RXR-selective agonist, in the presence or absence of Sulindac. (TREpal)2-tk-CAT (Zhang et al., Nature 358, 587-591 (1992a)) (FIG. 1E) and βRARE-tk-CAT (Zhang et al., Nature 355, 441-446 (1992b)) (FIG. 1F) CAT activity were determined.
(§1) Cells (1×10^5 cells/well) seeded in 24-well plates were transiently transfected using a modified calcium phosphate precipitation procedure as described (Kolluri, S. K. et al., Proc Natl Acad Sci USA 102 (7), 2525-2530 (2005); Cao, X., et al., Mol Cell Biol 24(22), 9705-9725 (2004)).

RXRα/TRα heterodimers = target: T2, RXRα/TRα heterodimers (Homo sapiens, UniProt P19793); assay: TREpal2-tk-CAT reporter assay in CV-1 cells; format: cell-based; details: T3 10^−7 M
T2 construct: expressed in transfected cells; host or cells: CV-1 green monkey kidney cells
T2 sequence (P19793 whole entry): as the sequence (P19793 whole entry, one chain of several) above
T2 sequence (P10827 1-410 isoform P10827-2 partner): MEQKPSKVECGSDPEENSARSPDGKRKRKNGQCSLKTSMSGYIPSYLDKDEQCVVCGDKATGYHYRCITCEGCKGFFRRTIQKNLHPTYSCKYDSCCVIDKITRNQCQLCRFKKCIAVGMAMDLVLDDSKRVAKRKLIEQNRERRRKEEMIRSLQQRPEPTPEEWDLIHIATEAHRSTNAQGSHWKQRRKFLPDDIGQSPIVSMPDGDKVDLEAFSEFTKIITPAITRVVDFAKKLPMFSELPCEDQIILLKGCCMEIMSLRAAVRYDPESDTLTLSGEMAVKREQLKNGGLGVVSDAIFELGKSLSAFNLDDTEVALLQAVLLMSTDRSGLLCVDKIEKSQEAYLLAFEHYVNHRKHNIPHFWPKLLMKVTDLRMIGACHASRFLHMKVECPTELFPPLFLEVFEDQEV
Protocol: Receptor expression vectors and a reporter gene (TREpal2-tk-CAT for RXRα/TRα heterodimers (FIG. 9C), and DR1 tk-CAT for RXRα/PPARγ heterodimer (FIG. 9B)) were transiently transfected into CV-1 cells. Cells were treated with or without ligands (ciglitazone, 10^−6 M; T3, 10^−7 M) in the presence or absence of Sulindac. CAT activity was determined.
as §1

SMILES	tumor volume compared to control (MCF-7 breast tumor)	development of cancer in patient at elevated risk (cancer)	toxicity [1]	inhibition of constitutive and TNFα- or IL-1β-induced PGE2 production [2]	RXRα homodimer and heterodimer transactivation (CAT activity) [3]	transactivation of RXR/TR heterodimers (CAT activity) (RXRα/TRα heterodimers)
CC1=C(CC(=O)O)c2cc(F)ccc2/C1=C\c1ccc(C(C)C)cc1 [K-80003, (Z)-2-(3-(4-Iso-propylbenzylidene)-6-fluoro-2-methyl-3H-inden-1-yl)acetic acid]	dose-dependent decrease in tumor volume	does not develop cancer	very low toxicity	failed to inhibit; also recorded: did not inhibit	–	–
CSc1ccc(/C=C2/C(C)=C(CC(=O)O)c3cc(F)ccc32)cc1 [Sulindac, (Z)-2-(3-(4-(Methylthio)benzylidene)-6-fluoro-2-methyl-3H-inden-1-yl)acetic acid]	–	–	–	–	inhibited RXRα homodimer and heterodimer transactivation	not RXR/TR heterodimers
